Measured values from patent US11976083B2, “Inhibitors of peptidylarginine deiminases” (Gilead Sciences, Inc., priority 2020, dated 2024).

Each compound was assayed against T1, human PAD4 (Homo sapiens, UniProt Q9UM07) (assay: In vitro PAD4 BAEE biochemical assay). Settings: BAEE substrate 3 mM, 5 nM PAD4, 2 mM calcium chloride; geometric mean of multiple experiments.
T1 construct: human PAD4 (NM_012387), A2-P663, was PCR amplified; His-SUMO (N, cleaved yes); made in house; host or cells: E. coli BL21(DE3)
Procedure, shortened: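 PAD4 5 nM, CaCl2 2 mM, BAEE 3 mM final; 50 mM MOPS pH 7.6, 50 mM NaCl, 0.05% Tween-20, 2 mM DTT. Cpd + enzyme 30 min 25 °C; substrate 2 h 25 °C; EDTA stop; OPA detection 1 h. IC50 4-parameter fit.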

T1 sequence (Q9UM07 2-663): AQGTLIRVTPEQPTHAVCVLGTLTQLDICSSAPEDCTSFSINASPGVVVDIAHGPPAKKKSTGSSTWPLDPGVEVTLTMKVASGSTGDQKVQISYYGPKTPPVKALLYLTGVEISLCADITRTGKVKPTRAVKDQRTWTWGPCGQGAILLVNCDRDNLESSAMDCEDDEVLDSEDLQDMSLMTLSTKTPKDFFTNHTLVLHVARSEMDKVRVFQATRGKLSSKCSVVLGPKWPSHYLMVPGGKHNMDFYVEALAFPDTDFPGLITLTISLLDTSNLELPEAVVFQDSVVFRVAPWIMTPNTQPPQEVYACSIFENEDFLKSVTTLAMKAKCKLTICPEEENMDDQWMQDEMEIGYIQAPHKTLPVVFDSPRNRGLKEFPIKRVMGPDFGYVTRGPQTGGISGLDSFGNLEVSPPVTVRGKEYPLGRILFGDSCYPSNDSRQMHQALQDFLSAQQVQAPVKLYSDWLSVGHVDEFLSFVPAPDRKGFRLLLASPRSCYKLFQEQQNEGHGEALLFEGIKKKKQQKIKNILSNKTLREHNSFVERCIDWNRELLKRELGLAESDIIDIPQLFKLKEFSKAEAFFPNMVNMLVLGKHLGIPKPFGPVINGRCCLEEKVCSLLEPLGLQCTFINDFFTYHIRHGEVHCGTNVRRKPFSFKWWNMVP

| SMILES | IC50 [nM] |
| --- | --- |
| COCCn1c(-c2cc3ccc4nc3n2CCCCC[C@@H]2C[C@H]2C(=O)N[C@@H]4C)nc2cc(C(=O)N[C@H]3CNCC[C@@H]3F)c(F)cc21 [Example 422, 6-fluoro-~{N}-[(4~{S})-4-fluoro-3-piperidyl]-1-(2-methoxyethyl)-2-[(2~{R},5~{R},7~{R})-2-methyl-4-oxo-3,13,19-triazatetracyclo[11.5.2.0^{5,7}.0^{16,20}]icosa-1(18),14,16,19-tetraen-14-yl]benzimidazole-5-carboxamide] | 39 |
| C[C@H]1NS(=O)(=O)CCCC/C=C/Cn2c(-c3nc4cc(C(=O)N[C@H]5CNCC[C@@H]5F)c(F)cc4n3C)cc3ccc1nc32 [Example 497, 6-fluoro-~{N}-[(3~ {S},4~{S})-4-fluoro-3-piperidyl]-1-methyl-2-[(3~{E},11~{R})-11-methyl-9,9-dioxo-9$1^6-thia-1,10,19-triazatricyclo[10.5.2.0^{15,18}]nonadeca-3,12(19),13,15 (18),16-pentaen-17-yl]benzimidazole-5-carboxamide] | 54 |
| C[C@H]1NC(=O)[C@@](F)(c2ccccn2)CCCCCCn2c(-c3nc4cc(C(=O)N5C[C@H](N)[C@@H]6CC[C@H]5C6)cc(F)c4n3C3CC3)cc3ccc1nc32 [Example 885, (8~{S},11~{R})-17-[5-[(1~{S},4~{R},5~{R})-4-amino-2-azabicyclo[3.2.1]octane-2-carbonyl]-1-cyclopropyl-7-fluoro-benzimidazol-2-yl]-8-fluoro-11-methyl-8-(2-pyridyl)-1,10,19-triazatricyclo[10.5.2.0^ {15,18}]nonadeca-12(19), 13,15(18),16-tetraen-9-one] | 11 |
| COc1cc(C(=O)N[C@H]2CNCC[C@@H]2F)cc2nc(-c3cc4ccc5nc4n3CCC/C=C/c3c(noc3C)C(=O)N[C@@H]5C)n(C)c12 [Example 399, 2-[(2~{R},10~{E})-2,8-dimethyl-4-oxo-7-oxa-3,6,15,21-tetrazatetracyclo[13.5.2.0^{5,9}.0^{18,22}]docosa-1(21),5,8,10,16,18(22),19-heptaen-16-yl]-~{N}-[(3~{S},4~{S})-4-fluoro-3-piperidyl]-7-methoxy-1-methyl-benzimidazole-5-carboxamide] | 86 |
| [2H]C1([2H])[C@H](N)[C@@H]2CC[C@@H](C2)N1C(=O)c1cc(F)c2c(c1)nc(-c1cc3ccc4nc3n1CCCCCc1nc(Cl)ccc1C(=O)N[C@@H]4C)n2C1CC1 [Example 764, (2~{R})-17-[5-[(1~{S},4~{R}, 5~{R})-4-amino-3,3-dideuterio-2-azabicyclo[3.2.1]octane-2-carbonyl]-1-cyclopropyl-7-fluoro-benzimidazol-2-yl]-8-chloro-2-methyl-3,9,16,22-tetrazatetracyclo[14.5.2.0^ {5,10).0^{19,23}]tricosa-1(22),5(10),6,8,17,19(23),20-heptaen-4-one] | 22 |
| COC1(Cn2c(-c3cc4ccc5nc4n3CCCCC[C@@H]3C[C@H]3C(=O)N[C@@H]5C)nc3cc(C(=O)N[C@H]4CNCC[C@@H]4F)c(F)cc32)CC1 [Example 404, 6-fluoro-~{N}-[(3~{S},4~{S})-4-fluoro-3-piperidyl]-1-[(1-methoxycyclopropyl)methyl]-2-[(2~{R},5~{R},7~{R})-2-methyl-4-oxo-3,13,19-triazatetracyclo[11.5.2.0^{5,7}.0^{16,20}]icosa-1(19),14,16(20),17-tetraen-14-yl]benzimidazole-5-carboxamide] | 83 |
| C[C@H]1NC(=O)[C@@H]2C[C@@]2(F)CCCCCn2c(-c3nc4cc(C(=O)N5C[C@H](N)[C@@H]6CC[C@H]5C6)cc(F)c4n3CC(F)F)cc3ccc1nc32 [Example 920, (2~{R},5~{S},7~{S})-14-[5-[(1~{S),4~{R},5~{R})-4-amino-2-azabicyclo[3.2.1]octane-2-carbonyl]-1-(2,2-difluoroethyl)-7-fluoro-benzimidazol-2-yl]-7-fluoro-2-methyl-3,13,19-triazatetracyclo [11.5.2.0^{5,7}.0^{16,20}] icosa-1(19),14,16(20),17-tetraen-4-one] | 21 |
| COc1cc(C(=O)N[C@H]2CNCC[C@@H]2F)cc2nc(-c3cc4ccc5nc4n3C[C@@H]3C[C@H]3CCc3ccccc3C(=O)N[C@@H]5C)n(C)c12 [Example 346, ~{N}-[(3~{S),4~{S})-4-fluoro-3-piperidyl]-7-methoxy-1-methyl-2-[(3~{R},5~{R},16~{R})-16-methyl-14-oxo-1,15,24-triazapentacyclo[15.5.2.0^{3,5}.0^{8,13}.0^ {20,23}]tetracosa-8,10,12,17(24),18,20(23),21-heptaen-22-yl]benzimidazole-5-carboxamide] | 97 |
| C[C@H]1NC(=O)c2ccc(Cl)nc2CC[C@@H]2C[C@@H]2Cn2c(-c3nc4cc(C(=O)N5C[C@H](N)[C@@H]6CC[C@H]5C6)cc(F)c4n3C3CC3)cc3ccc1nc32 [Example 709, (3~{S),5~{R},16~{R})-22-[5-[(1~{S},4~{R},5~ {R})-4-amino-2-azabicyclo[3.2.1]octane-2-carbonyl]-1-cyclopropyl-7-fluoro-benzimidazol-2-yl]-10-chloro-16-methyl-1,9,15,24-tetrazapentacyclo[15.5.2.0^ {3,5}.0^{8,13}.0^{20,23}] tetracosa-8(13),9,11, 17(24),18,20(23),21-heptaen-14-one] | 25 |
| C[C@H]1NC(=O)c2nn(C)nc2CCCCCn2c(-c3nc4cc(C(=O)N[C@H]5CNCC[C@@H]5F)c(F)cc4n3C)cc3ccc1nc32 [Example 546, 2-[(2~{R})-2,7-dimethyl-4-oxo-3,6,7,8,15,21-hexazatetracyclo[13.5.2.0^ {5,9}.0^{18,22}]docosa-1(21),5,8,16,18(22), 19-hexaen-16-yl]-6-fluoro-~{N}-[(3~{S},4~{S})-4-fluoro-3-piperidyl]-1-methyl-benzimidazole-5-carboxamide] | 59 |

Second part, the compound after the results:

| IC50 [nM] | SMILES |
| --- | --- |
| 97 | COc1cc(C(=O)N2CCC[C@@H](N)C2)cc2nc(-c3cc4ccc5nc4n3CC(C)(C)CCCCCC(=O)N[C@@H]5C)n(C)c12 [Example 140, (11~{R})-17-[5-[(3~{R})-3-aminopiperidine-1-carbonyl]-7-methoxy-1-methyl-benzimidazol-2-yl]-3,3,11-trimethyl-1,10,19-triazatricyclo[10.5.2.0^{15,18}]nonadeca-12(19),13,15(18),16-tetraen-9-one] |
| 49 | COc1cc(C(=O)N2C[C@H](N)[C@@H]3CC[C@H]2C3)cc2nc(-c3cc4ccc5nc4n3CCCCCOC3(CC3)C(=O)N[C@@H]5C)n(C)c12 [Example 910, (11~{R})-17-[5-[(1~{S},4~ {R},5~{R})-4-amino-2-azabicyclo [3.2.1]octane-2-carbonyl]-7-methoxy-1-methyl-benzimidazol-2-yl]-11-methyl-spiro[7-oxa-1,10,19-triazatricyclo[10.5.2.0^{15,18}]nonadeca-12(19), 13,15(18),16-tetraene-8,1′-cyclopropane]-9-one] |
| 21 | COc1cc(C(=O)N2[C@H]3CC[C@@H]2[C@H](N)C3)cc2nc(-c3cc4ccc5nc4n3CCCCCCCC(=O)N3CCC[C@H]53)n(C)c12 [Example 125, (2˜{R})-16-[5-[(1˜{R},2˜{R},4˜{S})-2-amino-7-azabicyclo[2.2.1]heptane-7-carbonyl)-7-methoxy-1-methyl-benzimidazol-2-yl]-6,15,21-triazatetracyclo[13.5.2.0^{2,6}.0^{18,22}]docosa-1(21),16,18(22),19-tetraen-7-one] |
| 254 | COc1cc(C(=O)NC2CNCC[C@@H]2F)cc2nc(-c3cc4ccc5nc4n3C[C@H]3C[C@H]3CCC[C@@](C)(C(F)(F)F)C(=O)N[C@@H]5C)n(C)c12 (some centres unmarked) [Example 373, 2-[(3~{S},5~{R},9~{R},12~{R})-9,12-dimethyl-10-oxo-9-(trifluoromethyl)-1,11,20-triazatetracyclo[11.5.2.0^{3,5}.0^{16,19}]icosa-13(20),14,16(19),17-tetraen-18-yl]-~{N}-[(3~{S},4~{S})-4-fluoro-3-piperidyl]-7-methoxy-1-methyl-benzimidazole-5-carboxamide] |
| 58 | CO[C@@H]1CCN(C(=O)c2cc(F)c3c(c2)nc(-c2cc4ccc5nc4n2CC(F)(F)/C=C/C[C@@H]2C[C@H]2C(=O)N[C@@H]5C)n3C2CC2)C[C@@H]1N [Example 742, (2~{R},5~{R},7~{R},9~{E})-14-[5-[(3~{S},4~{R})-3-amino-4-methoxy-piperidine-1-carbonyl]-1-cyclopropyl-7-fluoro-benzimidazol-2-yl]-11,11-difluoro-2-methyl-3,13,19-triazatetracyclo[11.5.2.0^ {5,7}.0^{16,20}]icosa-1(19), 9,14,16(20),17-pentaen-4-one] |
| 22 | COc1cc(C(=O)N2[C@H]3CC[C@@H]2[C@H](N)C3)cc2nc(-c3cc4ccc5nc4n3C/C=C\CCCCCC(=O)N[C@@H]5C)c(C)n12 [Example 120, (12˜{R})-18-[7-[(1˜{R},2˜{R},4˜{S})-2-amino-7-azabicyclo[2.2.1]heptane-7-carbonyl]-5-methoxy-3-methyl-imidazo[1,2-a]pyridin-2-yl]-12-methyl-1,11,20-triazatricyclo[11.5.2.0^{16,19}]icosa-3,13(20),14,16(19),17-pentaen-10-one] |
| 90 | COc1cc(C(=O)N2CCC[C@@H](N)C2)cc2nc(-c3cc4ccc5nc4n3C[C@@H]3C[C@H]3CC[C@H]3C[C@@H]3C(=O)N[C@@H]5C)n(C)c12 [Example 167, (3~{R},5~{R},8~{S},10~{S},13~{R})-19-[5-[(3~{R})-3-aminopiperidine-1-carbonyl]-7-methoxy-1-methyl-benzimidazol-2-yl]-13-methyl-1,12,21-triazapentacyclo[12.5.2.0^{3,5}.0^{8,10}.0^ {17,20}]henicosa-14(21),15,17(20),18-tetraen-11-one] |
